Where two headings read alike, the source gives them in different places.
Assays:
SNB-19 = test: NCI SRB cytotoxicity, SNB-19 (CNS); assay type: cell-based, human; conditions: 48 hrs exposure
Description: (§1) Biological Activity: The in vitro biological activity studies were carried out at the National Cancer Institute, Maryland, USA.
(§2) The C8-linked isoxazoline-PBD hybrids have been tested against sixty human tumour cell lines derived from nine cancer types (leukemia, non-small cell lung cancer, colon cancer, CNS cancer, melanoma, ovarian cancer, renal cancer, prostate cancer and breast cancer) as per NCI protocol. For each compound, dose response curves for individual cell lines have been measured at a minimum of five concentrations at 10 fold dilutions. A protocol of 48 hrs continuous drug exposure has been used, and a sulforhodamine B (SRB) protein assay was used to estimate cell viability or growth. The concentration for 50% cell growth inhibition (GI50), total cell growth inhibition (TGI, 0% growth) and 50% cell death (LC50, […]) compared with the control has been calculated (FIG. 2).
(§3) Compound 5b and 9b have been evaluated for in vitro cytotoxicity in sixty cell lines from nine human cancer types of lung (Hop-62, NCI-H226, NCI-H522), leukemia (K-562, SR), colon (HCT-116, HCT-15, HCC-2998), CNS(SF-539), melanoma (SK-MEL-5, UACC-62, M14), ovarian (IGROV1), renal (A498), prostate (PC3) breast (BT-549, MDA-MB-435, HS578T) origin. The results are expressed as percent of cell growth determined relative to that of untreated control cells (Table 1).

SK-OV-3 = test: NCI SRB cytotoxicity, SK-OV-3 (ovarian); assay type: cell-based, human; conditions: 48 hrs exposure
Description: as §1, §2, §3

HCC-2998 = test: NCI SRB cytotoxicity, HCC-2998 (colon); assay type: cell-based, human
Description: as §1, §2, §3

LOX IMVI = test: NCI SRB cytotoxicity, LOX IMVI (melanoma); assay type: cell-based, human; conditions: 48 hrs exposure
Description: as §1, §2, §3

Renal = test: NCI SRB cytotoxicity, renal cancer panel; assay type: cell-based, human; conditions: average of six to eight different cancer cell lines; for Log10 LC50: 50% lethality
Description: as §1, §2, §3

RPMI-8226 = test: NCI SRB cytotoxicity, RPMI-8226 (leukemia); assay type: cell-based, human; conditions: 48 hrs exposure
Description: as §1, §2, §3

KM12 = test: NCI SRB cytotoxicity, KM12 (colon); assay type: cell-based, human; conditions: 48 hrs exposure
Description: as §1, §2, §3

HCT-116 = test: NCI SRB cytotoxicity, HCT-116 (colon); assay type: cell-based, human
Description: as §1, §2, §3

Melanoma = test: NCI SRB cytotoxicity, melanoma panel; assay type: cell-based, human; conditions: average of six to eight different cancer cell lines; for Log10 LC50: 50% lethality
Description: as §1, §2, §3

SK-MEL-5 = test: NCI SRB cytotoxicity, SK-MEL-5 (melanoma); assay type: cell-based, human
Description: as §1, §2, §3

SF-539 = test: NCI SRB cytotoxicity, SF-539 (CNS); assay type: cell-based, human
Description: as §1, §2, §3

Prostate = test: NCI SRB cytotoxicity, prostate cancer panel; assay type: cell-based, human; conditions: average of six to eight different cancer cell lines; for Log10 LC50: 50% lethality
Description: as §1, §2, §3

UACC-257 = test: NCI SRB cytotoxicity, UACC-257 (melanoma); assay type: cell-based, human; conditions: 48 hrs exposure
Description: as §1, §2, §3

[1] = test system: sixty human tumour cell lines; test: NCI in vitro cytotoxicity, sixty human tumour cell lines (SRB); assay type: cell-based; conditions: for GI50: bound over all cell lines; for Log10 GI50 mean graph midpoint (MG_MID) / Log10 TGI mean graph midpoint (MG_MID): human tumour cell lines; for Log10 TGI mean graph midpoint (MG_MID): total cell growth inhibition
Description: as §1, §2, §3

CAKI-1 = test: NCI SRB cytotoxicity, CAKI-1 (renal); assay type: cell-based, human; conditions: 48 hrs exposure
Description: as §1, §2, §3

OVCAR-4 = test: NCI SRB cytotoxicity, OVCAR-4 (ovarian); assay type: cell-based, human; conditions: 48 hrs exposure
Description: as §1, §2, §3

OVCAR-5 = test: NCI SRB cytotoxicity, OVCAR-5 (ovarian); assay type: cell-based, human; conditions: 48 hrs exposure
Description: as §1, §2, §3

NCI-H226 = test: NCI SRB cytotoxicity, NCI-H226 (non-small cell lung); assay type: cell-based, human
Description: as §1, §2, §3

U251 = test: NCI SRB cytotoxicity, U251 (CNS); assay type: cell-based, human; conditions: 48 hrs exposure
Description: as §1, §2, §3

BT-549 = test: NCI SRB cytotoxicity, BT-549 (breast); assay type: cell-based, human
Description: as §1, §2, §3

786-0 = test: NCI SRB cytotoxicity, 786-0 (renal); assay type: cell-based, human; conditions: 48 hrs exposure
Description: as §1, §2, §3

HOP-62 = test: NCI SRB cytotoxicity, HOP-62 (non-small cell lung); assay type: cell-based, human
Description: as §1, §2, §3

SK-MEL-28 = test: NCI SRB cytotoxicity, SK-MEL-28 (melanoma); assay type: cell-based, human; conditions: 48 hrs exposure
Description: as §1, §2, §3

SNB-75 = test: NCI SRB cytotoxicity, SNB-75 (CNS); assay type: cell-based, human; conditions: 48 hrs exposure
Description: as §1, §2, §3

T-47D = test: NCI SRB cytotoxicity, T-47D (breast); assay type: cell-based, human; conditions: 48 hrs exposure
Description: as §1, §2, §3

MDA-MB-435 = test: NCI SRB cytotoxicity, MDA-MB-435 (breast); assay type: cell-based, human
Description: as §1, §2, §3

HOP-92 = test: NCI SRB cytotoxicity, HOP-92 (non-small cell lung); assay type: cell-based, human; conditions: HOP-92, Non-smallcell lung; 48 hrs exposure
Description: as §1, §2, §3

SN12C = test: NCI SRB cytotoxicity, SN12C (renal); assay type: cell-based, human; conditions: 48 hrs exposure
Description: as §1, §2, §3

NCI-H460 = test: NCI SRB cytotoxicity, NCI-H460 (non-small cell lung); assay type: cell-based, human; conditions: NCI-H460, Non-smallcell lung; 48 hrs exposure
Description: as §1, §2, §3

SW-620 = test: NCI SRB cytotoxicity, SW-620 (colon); assay type: cell-based, human; conditions: 48 hrs exposure
Description: as §1, §2, §3

CCRF-CEM = test: NCI SRB cytotoxicity, CCRF-CEM (leukemia); assay type: cell-based, human; conditions: 48 hrs exposure
Description: as §1, §2, §3

OVCAR-3 = test: NCI SRB cytotoxicity, OVCAR-3 (ovarian); assay type: cell-based, human; conditions: 48 hrs exposure
Description: as §1, §2, §3

UACC-62 = test: NCI SRB cytotoxicity, UACC-62 (melanoma); assay type: cell-based, human
Description: as §1, §2, §3

Ovarian = test: NCI SRB cytotoxicity, ovarian cancer panel; assay type: cell-based, human; conditions: average of six to eight different cancer cell lines; for Log10 LC50: 50% lethality
Description: as §1, §2, §3

ACHN = test: NCI SRB cytotoxicity, ACHN (renal); assay type: cell-based, human; conditions: 48 hrs exposure
Description: as §1, §2, §3

Breast = test: NCI SRB cytotoxicity, breast cancer panel; assay type: cell-based, human; conditions: average of six to eight different cancer cell lines; for Log10 LC50: 50% lethality
Description: as §1, §2, §3

DU-145 = test: NCI SRB cytotoxicity, DU-145 (prostate); assay type: cell-based, human; conditions: 48 hrs exposure
Description: as §1, §2, §3

[2] = HCC-2998, Colon, 48 hrs exposure
[3] = HCT-116, Colon, 48 hrs exposure
[4] = SK-MEL-5, Melanoma, 48 hrs exposure
[5] = text b111, read-out: GI50 against sixty cell lines in nine cancer cell panels
[6] = NCI-H226, Non-smallcell lung, 48 hrs exposure
[7] = BT-549, Breast, 48 hrs exposure
[8] = HOP-62, Non-smallcell lung, 48 hrs exposure
[9] = MDA-MB-435, Breast, 48 hrs exposure
[10] = UACC-62, Melanoma, 48 hrs exposure

COc1cc(C2=NOC(c3cc(OC)c(OC)c(OC)c3)C2)ccc1OCCCCOc1cc2c(cc1OC)C(=O)N1CCC[C@H]1C=N2 (stereo partly drawn) [Compound 5b, (11aS)-7-(methyloxy)-8-(4-[(2-(methyloxy)-4-5-[3,4,5-tri(methyloxy)phenyl]-4,5-dihydro-3-isoxazolylphenyl)oxy]butyloxy)-2,3,5,11a-tetrahydro-1H benzo[e]pyrrolo[1,2-a][1,4]diazepin-5-one]
GI50 (SNB-19): 340 nM
GI50 (SK-OV-3): 470 nM
GI50 (HCC-2998; [2]): 190 nM
GI50 (HCC-2998; colon cancer HCC-2998): 190 nM
GI50 (LOX IMVI): 220 nM
Log10 LC50 (Renal): −4.94 mol/L
Log10GI50 (Renal): −6.58 mol/L
GI50 (RPMI-8226): 240 nM
GI50 (KM12): 220 nM
GI50 (HCT-116; [3]): 180 nM
GI50 (HCT-116; colon cancer HCT-116): 180 nM
Log10 LC50 (Melanoma): −5.82 mol/L
Log10GI50 (Melanoma): −6.68 mol/L
GI50 (SK-MEL-5; [4]): 160 nM
GI50 (SK-MEL-5; melanoma SK-MEL-5): 200 nM
GI50 (SF-539; CNS SF-539): 220 nM
GI50 (SF-539; SF-539, CNS, 48 hrs exposure): 220 nM
Log10 LC50 (Prostate): −4.82 mol/L
Log10GI50 (Prostate): −6.49 mol/L
GI50 (UACC-257): 270 nM
GI50 ([1]; read-out: GI50 against sixty cell lines in nine cell panels): < 470 nM
in vitro cytotoxicity (in words) ([1]; human cancer cell lines): significant cytotoxicity
Log10 GI50 mean graph midpoint (MG_MID) [1]: −6.59
Log10 TGI mean graph midpoint (MG_MID) [1]: −6.05
activity of 5b compared with 9b ([1]; in vitro cytotoxicity, comparison of GI50): ten folds higher activity than 9b
GI50 [1, 5]: < 470 nM
GI50 (CAKI-1): 250 nM
GI50 (OVCAR-4): 400 nM
GI50 (OVCAR-5): 420 nM
GI50 (NCI-H226; [6]): 170 nM
GI50 (NCI-H226; non-small cell lung cancer NCI-H226): 310 nM
GI50 (U251): 300 nM
GI50 (BT-549; [7]): 90 nM
GI50 (BT-549; breast BT-549): 90 nM
GI50 (786-0): 280 nM
GI50 (HOP-62; [8]): 270 nM
GI50 (HOP-62; non-small cell lung cancer HOP-62): 270 nM
GI50 (SK-MEL-28): 200 nM
GI50 (SNB-75): 320 nM
GI50 (T-47D): 280 nM
GI50 (MDA-MB-435; [9]): 170 nM
GI50 (MDA-MB-435; breast MDA-MB-435): 170 nM
GI50 (HOP-92): 310 nM
GI50 (SN12C): 300 nM
GI50 (NCI-H460): 210 nM
GI50 (SW-620): 230 nM
GI50 (CCRF-CEM): 160 nM
GI50 (OVCAR-3): 270 nM
GI50 (UACC-62; [10]): 160 nM
GI50 (UACC-62; melanoma UACC-62): 160 nM
Log10 LC50 (Ovarian): −4.84 mol/L
Log10GI50 (Ovarian): −6.44 mol/L
GI50 (ACHN): 280 nM
Log10 LC50 (Breast): −4.52 mol/L
Log10GI50 (Breast): −6.74 mol/L
GI50 (DU-145): 320 nM

COc1ccc(C2CC(c3ccc(OC)c(OC)c3OC)=NO2)cc1OCCCCOc1cc2c(cc1OC)C(=O)N1CCC[C@H]1C=N2 (stereo partly drawn) [Compound 9b, (11aS)-7-(methyloxy)-8-(4-[(2-(methyloxy)-5-3-[2,3,4-tri(methyloxy)phenyl]-4,5-dihydro-5-isoxazolylphenyl)oxy]butyloxy)-2,3,5,11a-tetrahydro-1H-benzo[e]pyrrolo[1,2-a][1,4]diazepin-5-one]
GI50 (SNB-19): 1960 nM
GI50 (SK-OV-3): 3370 nM
GI50 (HCC-2998; [2]): 1580 nM
GI50 (LOX IMVI): 1470 nM
Log10 LC50 (Renal): −4.77 mol/L
Log10GI50 (Renal): −5.62 mol/L
GI50 (RPMI-8226): 1430 nM
GI50 (KM12): 1740 nM
GI50 (HCT-116; [3]): 1700 nM
Log10 LC50 (Melanoma): −5.12 mol/L
Log10GI50 (Melanoma): −5.72 mol/L
GI50 (SK-MEL-5; [4]): 1470 nM
GI50 (SF-539; SF-539, CNS, 48 hrs exposure): 1800 nM
Log10 LC50 (Prostate): −4.54 mol/L
Log10GI50 (Prostate): −5.92 mol/L
GI50 (UACC-257): 2330 nM
Log10 GI50 mean graph midpoint (MG_MID) [1]: −5.73
Log10 TGI mean graph midpoint (MG_MID) [1]: −5.28
GI50 [1, 5]: < 3540 nM
GI50 (CAKI-1): 3090 nM
GI50 (OVCAR-4): 2070 nM
GI50 (OVCAR-5): 3130 nM
GI50 (NCI-H226; [6]): 1670 nM
GI50 (U251): 1730 nM
GI50 (BT-549; [7]): 1230 nM
GI50 (786-0): 1570 nM
GI50 (HOP-62; [8]): 1680 nM
GI50 (SK-MEL-28): 2070 nM
GI50 (SNB-75): 1710 nM
GI50 (T-47D): 1310 nM
GI50 (MDA-MB-435; [9]): 3540 nM
GI50 (HOP-92): 2470 nM
GI50 (SN12C): 1580 nM
GI50 (NCI-H460): 1850 nM
GI50 (SW-620): 1550 nM
GI50 (CCRF-CEM): 1410 nM
GI50 (OVCAR-3): 1940 nM
GI50 (UACC-62; [10]): 1520 nM
Log10 LC50 (Ovarian): −4.48 mol/L
Log10GI50 (Ovarian): −5.61 mol/L
GI50 (ACHN): 2410 nM
Log10 LC50 (Breast): −4.34 mol/L
Log10GI50 (Breast): −5.74 mol/L
GI50 (DU-145): 2480 nM
